Usually CC50 stands for the concentration giving 50% cytotoxicity. Usually AC50 stands for the midpoint of the concentration-response curve, whichever way the signal moves.

Assay [1] concerns the target 5-hydroxytryptamine receptor 5A (Homo sapiens, UniProt P47898). Description: Counterscreen for agonists of OPRM1-OPRD1 heterodimerization: luminescence-based cell-based high throughput dose response assay to identify agonists of 5-hydroxytryptamine (serotonin) 5A receptor (HTR5A). [Related pubchem assays (depositor defined):AID504326, AID504355, AID504692, AID504904, AID504905]. The format is functional. On the technique in general: A counterscreen serves to expose hits that act by an unwanted route or on another target.

Assay [2] concerns the target Delta-type opioid receptor (Homo sapiens, UniProt P41143). Description: Counterscreen for agonists of heterodimerization of the mu 1 (OPRM1) and delta 1 (OPRD1) opioid receptors: Luminescence-based cell-based high throughput dose response assay to identify agonists of OPRD1 homodimerization. [Related pubchem assays (depositor defined):AID504326, AID504355, AID504692, AID504904, AID504905]. Type of assay: functional.

In assay [3] the target is T1, Corticotropin-releasing factor receptor 2/Corticotropin-releasing factor-binding protein (Homo sapiens, UniProt P24387+Q13324).
T1 sequence (Q13324 whole entry): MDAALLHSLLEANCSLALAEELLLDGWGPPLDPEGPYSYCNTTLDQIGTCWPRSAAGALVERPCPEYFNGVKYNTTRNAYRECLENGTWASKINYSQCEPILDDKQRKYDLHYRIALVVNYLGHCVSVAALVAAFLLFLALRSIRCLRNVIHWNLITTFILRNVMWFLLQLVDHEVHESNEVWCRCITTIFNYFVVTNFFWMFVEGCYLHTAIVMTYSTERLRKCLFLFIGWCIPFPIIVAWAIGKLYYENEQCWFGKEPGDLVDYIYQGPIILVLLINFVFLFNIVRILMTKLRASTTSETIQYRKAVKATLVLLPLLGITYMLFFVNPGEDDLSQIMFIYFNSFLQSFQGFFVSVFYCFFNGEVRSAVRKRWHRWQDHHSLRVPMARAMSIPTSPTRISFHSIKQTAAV
T1 sequence (P24387 whole entry): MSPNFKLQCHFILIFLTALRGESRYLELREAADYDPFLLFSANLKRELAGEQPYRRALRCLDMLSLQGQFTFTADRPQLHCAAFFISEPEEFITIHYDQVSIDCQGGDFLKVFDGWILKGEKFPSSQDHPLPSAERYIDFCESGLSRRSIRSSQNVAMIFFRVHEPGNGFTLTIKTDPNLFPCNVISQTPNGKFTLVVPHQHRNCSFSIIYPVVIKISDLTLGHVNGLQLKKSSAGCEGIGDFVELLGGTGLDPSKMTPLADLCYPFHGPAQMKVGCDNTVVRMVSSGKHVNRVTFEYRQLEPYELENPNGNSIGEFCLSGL
Put plainly: Dose Response confirmation of uHTS hits for small molecule antagonists of the CRF-binding protein and CRF-R2 receptor complex. The format is functional. Conditions: read-out: IC50_Mean.

Assay [4] deals with T1, Corticotropin-releasing factor receptor 2/Corticotropin-releasing factor-binding protein. Description: activators of CRF receptor 2 with binding protein – uHTS hits, confirmation (AID 602473). Conditions: read-out: EC50_Mean. The format is functional.
Another assay addresses Mu-type opioid receptor (Homo sapiens, UniProt P35372). Put plainly: Counterscreen for agonists of heterodimerization of the mu 1 (OPRM1) and delta 1 (OPRD1) opioid receptors: Luminescence-based cell-based high throughput dose response assay to identify agonists of OPRM1 homodimerization. The format is functional.
Assay [5] concerns the target T2, Short transient receptor potential channel 4 (Mus musculus, UniProt Q9QUQ5).
T2 sequence (Q9QUQ5 whole entry): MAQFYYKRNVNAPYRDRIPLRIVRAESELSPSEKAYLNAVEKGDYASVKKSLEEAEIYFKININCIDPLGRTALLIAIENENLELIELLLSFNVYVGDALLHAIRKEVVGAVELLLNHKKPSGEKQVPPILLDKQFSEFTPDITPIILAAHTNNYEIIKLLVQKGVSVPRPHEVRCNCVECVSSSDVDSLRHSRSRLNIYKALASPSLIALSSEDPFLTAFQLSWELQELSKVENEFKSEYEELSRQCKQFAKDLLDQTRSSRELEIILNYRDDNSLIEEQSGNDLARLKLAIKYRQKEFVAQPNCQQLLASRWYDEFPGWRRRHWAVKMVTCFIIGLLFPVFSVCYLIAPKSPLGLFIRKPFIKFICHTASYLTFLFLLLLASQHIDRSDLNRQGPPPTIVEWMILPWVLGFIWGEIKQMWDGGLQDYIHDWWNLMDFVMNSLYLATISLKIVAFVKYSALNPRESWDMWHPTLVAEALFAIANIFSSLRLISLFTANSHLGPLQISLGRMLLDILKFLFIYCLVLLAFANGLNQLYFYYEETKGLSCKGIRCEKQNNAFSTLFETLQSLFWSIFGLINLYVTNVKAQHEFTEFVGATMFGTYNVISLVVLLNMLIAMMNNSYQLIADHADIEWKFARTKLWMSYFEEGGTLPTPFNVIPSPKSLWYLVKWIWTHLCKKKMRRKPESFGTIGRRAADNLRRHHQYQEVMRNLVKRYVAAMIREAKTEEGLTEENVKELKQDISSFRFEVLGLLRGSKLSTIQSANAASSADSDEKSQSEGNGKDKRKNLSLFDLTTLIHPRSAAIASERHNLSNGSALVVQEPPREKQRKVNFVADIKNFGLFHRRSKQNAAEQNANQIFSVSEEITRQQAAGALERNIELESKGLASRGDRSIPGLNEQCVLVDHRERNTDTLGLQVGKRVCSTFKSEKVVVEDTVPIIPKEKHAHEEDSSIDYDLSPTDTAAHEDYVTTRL
Put plainly: mouse TRPC4 channel activators, dose response, cell-based, HEK293 TRPC4/mu-opioid, Fluo-4 calcium (AID 434937). Type of assay: functional.

The target of assay [6] is T3, Sentrin-specific protease 6 (Homo sapiens, UniProt Q9GZR1).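 Also: Luminescence-based dose-response confirmatory assay of SENP6 inhibition, following up an ultra-high-throughput screen.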
T3 sequence (Q9GZR1 whole entry): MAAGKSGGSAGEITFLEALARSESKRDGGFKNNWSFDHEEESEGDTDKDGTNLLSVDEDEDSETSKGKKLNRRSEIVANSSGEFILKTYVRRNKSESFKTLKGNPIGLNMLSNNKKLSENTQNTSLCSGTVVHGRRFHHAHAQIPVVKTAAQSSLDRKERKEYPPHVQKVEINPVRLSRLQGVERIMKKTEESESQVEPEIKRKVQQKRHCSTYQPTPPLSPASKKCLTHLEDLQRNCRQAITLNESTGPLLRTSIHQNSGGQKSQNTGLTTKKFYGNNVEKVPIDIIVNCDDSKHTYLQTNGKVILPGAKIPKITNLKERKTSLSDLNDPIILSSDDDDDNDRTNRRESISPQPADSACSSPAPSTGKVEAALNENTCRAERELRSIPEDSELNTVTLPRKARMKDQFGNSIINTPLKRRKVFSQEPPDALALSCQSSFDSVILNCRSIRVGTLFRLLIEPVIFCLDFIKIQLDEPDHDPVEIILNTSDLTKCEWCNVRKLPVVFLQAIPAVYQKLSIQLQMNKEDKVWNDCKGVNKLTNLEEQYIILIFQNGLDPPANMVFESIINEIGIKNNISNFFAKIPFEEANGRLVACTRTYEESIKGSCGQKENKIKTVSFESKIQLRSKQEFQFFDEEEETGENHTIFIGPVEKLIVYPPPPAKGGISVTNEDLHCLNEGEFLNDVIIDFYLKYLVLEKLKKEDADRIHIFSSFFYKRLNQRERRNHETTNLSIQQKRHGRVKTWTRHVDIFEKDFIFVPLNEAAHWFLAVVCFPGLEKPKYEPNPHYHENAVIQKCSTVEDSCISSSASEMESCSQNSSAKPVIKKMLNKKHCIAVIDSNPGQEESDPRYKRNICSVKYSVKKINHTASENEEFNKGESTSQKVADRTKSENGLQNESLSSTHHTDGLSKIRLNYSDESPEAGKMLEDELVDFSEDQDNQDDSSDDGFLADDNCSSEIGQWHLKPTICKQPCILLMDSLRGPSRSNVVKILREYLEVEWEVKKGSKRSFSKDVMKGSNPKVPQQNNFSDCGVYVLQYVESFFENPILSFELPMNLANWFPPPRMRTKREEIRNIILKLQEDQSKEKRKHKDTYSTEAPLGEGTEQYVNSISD
Type of assay: functional.

In a further assay the target is T4, Caspase-3 (Homo sapiens, UniProt P42574).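 Also: Dose-response selectivity test against caspase-3 for candidate inhibitors of sentrin-specific proteases (SENPs).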
T4 sequence (P42574 whole entry): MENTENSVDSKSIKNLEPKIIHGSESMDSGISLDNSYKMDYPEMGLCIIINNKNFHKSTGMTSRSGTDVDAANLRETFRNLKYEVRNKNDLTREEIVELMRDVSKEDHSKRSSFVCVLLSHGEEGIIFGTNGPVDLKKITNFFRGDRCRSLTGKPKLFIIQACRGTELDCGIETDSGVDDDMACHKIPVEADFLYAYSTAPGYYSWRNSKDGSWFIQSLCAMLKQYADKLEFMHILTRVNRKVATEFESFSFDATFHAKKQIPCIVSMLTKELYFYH
The format is functional.

Assay [7] concerns the target T5, Sentrin-specific protease 8 (Homo sapiens, UniProt Q96LD8).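 Also: luminescence read-out of SENP8 inhibition, dose-response confirmation following an ultra-high-throughput screen.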
T5 sequence (Q96LD8 whole entry): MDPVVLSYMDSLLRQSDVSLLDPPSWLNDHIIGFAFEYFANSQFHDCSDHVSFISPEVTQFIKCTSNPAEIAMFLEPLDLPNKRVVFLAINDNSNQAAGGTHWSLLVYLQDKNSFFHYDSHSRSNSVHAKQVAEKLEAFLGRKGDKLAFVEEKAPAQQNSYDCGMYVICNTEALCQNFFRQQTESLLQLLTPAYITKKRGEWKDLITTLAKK
The format is functional.

In assay [8] the target is T6, Sentrin-specific protease 7 (Homo sapiens, UniProt Q9BQF6).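 Also: Luminescence-based dose-response confirmation of ultra-high-throughput screening hits, measuring inhibition of SENP7.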
T6 sequence (Q9BQF6 whole entry): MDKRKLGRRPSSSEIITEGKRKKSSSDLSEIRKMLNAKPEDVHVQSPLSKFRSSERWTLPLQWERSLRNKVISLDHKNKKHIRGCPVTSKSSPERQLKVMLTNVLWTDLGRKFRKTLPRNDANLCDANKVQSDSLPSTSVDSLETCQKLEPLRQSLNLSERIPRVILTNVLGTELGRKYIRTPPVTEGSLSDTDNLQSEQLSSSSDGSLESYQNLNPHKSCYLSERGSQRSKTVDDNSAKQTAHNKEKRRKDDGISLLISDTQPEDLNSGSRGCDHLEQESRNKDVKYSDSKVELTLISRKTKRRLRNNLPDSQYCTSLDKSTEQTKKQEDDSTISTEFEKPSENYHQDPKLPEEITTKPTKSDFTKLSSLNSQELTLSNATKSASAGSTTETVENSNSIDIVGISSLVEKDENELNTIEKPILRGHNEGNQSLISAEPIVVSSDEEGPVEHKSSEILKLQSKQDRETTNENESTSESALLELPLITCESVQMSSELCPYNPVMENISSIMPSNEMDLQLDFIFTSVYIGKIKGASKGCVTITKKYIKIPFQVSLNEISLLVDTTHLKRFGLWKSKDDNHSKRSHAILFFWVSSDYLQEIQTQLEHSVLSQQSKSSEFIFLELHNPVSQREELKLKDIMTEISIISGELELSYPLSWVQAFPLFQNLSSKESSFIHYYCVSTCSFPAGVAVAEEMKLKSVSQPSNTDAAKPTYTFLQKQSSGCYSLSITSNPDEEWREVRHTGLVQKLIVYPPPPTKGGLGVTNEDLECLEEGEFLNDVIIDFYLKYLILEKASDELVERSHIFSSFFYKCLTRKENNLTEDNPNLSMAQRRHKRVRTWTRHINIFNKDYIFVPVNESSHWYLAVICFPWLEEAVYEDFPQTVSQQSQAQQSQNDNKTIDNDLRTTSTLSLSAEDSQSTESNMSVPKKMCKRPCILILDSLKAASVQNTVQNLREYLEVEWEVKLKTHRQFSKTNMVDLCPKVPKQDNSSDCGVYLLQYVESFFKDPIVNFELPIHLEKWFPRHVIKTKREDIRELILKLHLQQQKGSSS
The format is functional.

A short description of assay [9]: HEp-2 cell cytotoxicity, dose response, cytotoxicity control for RSV inhibitor project, HTS (AID 2410). Type of assay: functional. The conditions noted are these: human respiratory syncytial virus.
A further assay has as its target Cytochrome P450 3A4 (Homo sapiens, UniProt P08684).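 Also: CYP3A4 tested as one member of a cytochrome P450 panel screen.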

Each structure is given as a SMILES string. The source made the active and inactive calls.

Delta-type opioid receptor, sequence (P41143 whole entry): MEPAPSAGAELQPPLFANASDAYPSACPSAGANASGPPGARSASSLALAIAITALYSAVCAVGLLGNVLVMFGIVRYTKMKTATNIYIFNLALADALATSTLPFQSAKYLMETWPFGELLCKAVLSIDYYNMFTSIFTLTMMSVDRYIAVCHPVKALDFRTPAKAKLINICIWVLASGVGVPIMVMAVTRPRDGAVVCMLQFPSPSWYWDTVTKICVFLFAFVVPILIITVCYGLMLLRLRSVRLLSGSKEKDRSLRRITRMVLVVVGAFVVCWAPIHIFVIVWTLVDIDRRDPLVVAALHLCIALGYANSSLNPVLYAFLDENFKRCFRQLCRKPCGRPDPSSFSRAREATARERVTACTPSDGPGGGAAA
5-hydroxytryptamine receptor 5A, sequence (P47898 whole entry): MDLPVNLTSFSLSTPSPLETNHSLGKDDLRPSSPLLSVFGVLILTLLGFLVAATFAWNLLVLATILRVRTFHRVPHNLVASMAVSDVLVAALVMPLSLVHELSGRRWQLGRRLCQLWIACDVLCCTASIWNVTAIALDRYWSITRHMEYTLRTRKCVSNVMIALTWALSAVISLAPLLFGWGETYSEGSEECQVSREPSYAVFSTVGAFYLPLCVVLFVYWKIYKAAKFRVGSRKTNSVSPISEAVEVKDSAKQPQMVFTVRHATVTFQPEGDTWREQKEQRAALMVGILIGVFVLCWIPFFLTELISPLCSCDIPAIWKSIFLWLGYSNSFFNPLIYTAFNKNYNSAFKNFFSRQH
Cytochrome P450 3A4, sequence (P08684 whole entry): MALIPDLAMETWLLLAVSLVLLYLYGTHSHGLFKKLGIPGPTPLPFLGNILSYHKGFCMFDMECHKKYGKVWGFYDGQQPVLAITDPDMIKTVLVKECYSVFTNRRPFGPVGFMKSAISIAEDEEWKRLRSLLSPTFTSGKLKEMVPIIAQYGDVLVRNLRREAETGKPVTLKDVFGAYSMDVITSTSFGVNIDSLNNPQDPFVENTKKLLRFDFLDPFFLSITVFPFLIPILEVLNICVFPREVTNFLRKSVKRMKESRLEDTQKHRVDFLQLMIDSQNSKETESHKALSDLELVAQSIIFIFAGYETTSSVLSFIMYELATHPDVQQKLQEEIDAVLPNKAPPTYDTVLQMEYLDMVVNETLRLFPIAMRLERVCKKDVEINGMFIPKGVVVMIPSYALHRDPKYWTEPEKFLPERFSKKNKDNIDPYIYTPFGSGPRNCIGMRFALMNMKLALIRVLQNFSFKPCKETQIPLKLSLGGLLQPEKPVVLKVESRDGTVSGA
Mu-type opioid receptor, sequence (P35372 whole entry): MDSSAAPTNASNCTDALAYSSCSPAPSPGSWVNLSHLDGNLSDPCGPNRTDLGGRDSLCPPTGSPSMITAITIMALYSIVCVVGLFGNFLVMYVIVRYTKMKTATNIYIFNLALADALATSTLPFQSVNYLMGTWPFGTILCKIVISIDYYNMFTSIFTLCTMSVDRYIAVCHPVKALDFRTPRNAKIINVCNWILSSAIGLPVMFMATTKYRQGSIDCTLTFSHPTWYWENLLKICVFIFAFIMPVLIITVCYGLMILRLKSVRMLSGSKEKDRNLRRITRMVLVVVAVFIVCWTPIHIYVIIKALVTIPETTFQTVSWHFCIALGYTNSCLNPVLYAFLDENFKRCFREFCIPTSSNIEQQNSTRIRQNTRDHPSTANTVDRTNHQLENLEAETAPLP

With `COc1ccc(-c2nn(-c3ccccc3C)cc2CNCc2cccnc2)cc1F`, the EC50 in [1] was > 92.5 µM (inactive); in assay [2], > 92.5 µM (inactive); in [4], > 53 µM (inactive); at Mu-type opioid receptor it was > 92.5 µM (inactive); in assay [5], 3.76 µM (active). Further, in [3], the IC50 is > 47.1 µM (inactive).

Consider `CC(C)CSC1=NSC2=NC(=O)/C(=C\c3cccs3)C(=N)N12`, for which the IC50 in assay [6] is 14.9 µM (active); on Caspase-3, 26.8 µM (active); in assay [7], 18.5 µM (active); in assay [8] it was 24.2 µM (active).

For `Oc1c(-c2cc(-c3ccco3)[nH]n2)ccc2ccccc12`, the IC50 in assay [6] was 15 µM (active); at Caspase-3, 59.7 µM (active); in assay [7], 19.3 µM (active); in [8], 4.87 µM (active).

For `O=C(COc1ccc2ccccc2c1)Nc1ccccc1C(=O)O`, the CC50 in [9] is 32.9 µM (active). Moreover, the IC50 in [6] was 25.5 µM (active); on Caspase-3 it was 15.2 µM (active); in the assay “cells” it was 41.5 µM (active); in [7], 43.4 µM (active); in [8], 13.4 µM (active).

As for `C/C(=N\NC(=O)c1ccc(Br)cc1)c1ccccc1`, the AC50 on Cytochrome P450 3A4 was 15.8 µM (inconclusive). Also, the IC50 in assay [6] was 6.55 µM (active); at Caspase-3, 4.06 µM (active); in assay [7], > 100 µM (inactive); in assay [8] it was 4.62 µM (active).

Values taken from ChEMBL document CHEMBL1201862, “PubChem BioAssay data set” (2004).
